# In paper PMC11069494, “Production of highly cytotoxic and low immunogenic L-asparaginase from Stenotrophomonas maltophilia EMCC2297” (AMB Express, 2024):
# Tested on: T1, L-asparaginase (N-SMASP)
# T1 construct: native enzyme purified from culture supernatant of chloramphenicol-selected colonies (ammonium sulfate, Sephadex G-100); single 17 kDa band on SDS-PAGE
# Assay: Nessler ammonia release assay, Lineweaver-Burk
# Format: biochemical, Stenotrophomonas maltophilia
# Conditions: 0.05 M Tris-HCl pH 8.6, 37 °C
smiles,measurement,value
NC(=O)C[C@H](N)C(=O)O [L-asparagine],Km,41.6 mM
